In patent publication US11840686B2, “Modulation of prekallikrein (PKK) expression” (Ionis Pharmaceuticals, Inc., priority 2013, dated 2023):
Strand notation (5' to 3'): a small letter for the sugar, then the base; units joined by * are phosphorothioate-linked, units joined directly phosphodiester-linked; [ ] holds rarer units or linkages, { } end groups; capitals alone tell only the bases. e = 2'-O-(2-methoxyethyl) (MOE); [5mC] = 5-methylcytosine; d = 2'-deoxy (DNA)

Test system: human PKK mRNA
Test: Antisense inhibition of human PKK mRNA in HepaRG cells, 5,000 nM (Example 2)
Format: cell-based
How it was run: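 Percent inhibition of PKK mRNA is reported relative to untreated cells, after adjustment for total RNA by RIBOGREEN. Gapmers of 16–20 nucleosides with 2′-MOE wings were delivered at 5,000 nM by electroporation into HepaRG cells and left for roughly 24 hours before RNA isolation.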

[1] = HepaRG cells, electroporation with 5,000 nM antisense oligonucleotide, approximately 24 hours, PKK mRNA by RT-PCR (RTS3454), relative to untreated control cells, Table 6 experiment
[2] = Table 8, HepaRG cells, electroporation with 5,000 nM antisense oligonucleotide, approx. 24 hours, PKK mRNA by RT-PCR (RTS3454), relative to untreated control cells
[3] = human PKK mRNA in HepaRG cells, 5-10-5 gapmers, Table 14
[4] = human PKK mRNA, HepaRG cells, 5-10-5 motif oligonucleotides targeting SEQ ID NO: 1 and 10
[5] = Table 9 experiment, HepaRG cells, 20,000 cells per well, electroporation with 5,000 nM antisense oligonucleotide, approx. 24 hours, PKK mRNA by RT-PCR (RTS3454), relative to untreated control cells
[6] = Table 10 experiment, HepaRG cells, 20,000 cells per well, electroporation with 5,000 nM antisense oligonucleotide, approx. 24 hours, PKK mRNA by RT-PCR (RTS3454), relative to untreated control cells
[7] = HepaRG cells, electroporation, 5,000 nM antisense oligonucleotide, approx. 24 hours, primer probe set RTS3454, relative to untreated control cells, Table 11
[8] = Table 13, human PKK mRNA in HepaRG cells, 5-10-5 gapmers
[9] = human PKK mRNA, HepaRG cells, 5,000 nM antisense oligonucleotide, Table 18
[10] = HepaRG cells, 5,000 nM antisense oligonucleotide, 5-10-5 gapmers, Table 16
[11] = HepaRG cells, 5,000 nM antisense oligonucleotide, 5-10-5 gapmers, Table 17
[12] = HepaRG cells, electroporation, 5,000 nM antisense oligonucleotide, approx. 24 hours, primer probe set RTS3454, relative to untreated control cells, Table 12

For “547338 (antisense eT*e[5mC]*eA*eA*e[5mC]*dT*d[5mC]*d[5mC]*dT*dT*dT*dA*dT*dA*dA*eA*eT*eG*eT*e[5mC]) [compound 547338]”, the “% inhibition” value [1] was 71%.
“547412 (eA*eT*e[5mC]*eA*eT*d[5mC]*dT*dT*dT*dG*dT*dG*d[5mC]*dA*dA*eG*eT*e[5mC]*eT*e[5mC]; antisense) [compound 547412]” was tested, and the “% inhibition” value [2] was 73%.
With “547606 (antisense eA*eA*e[5mC]*eA*eA*dT*dA*dT*d[5mC]*dA*d[5mC]*dT*dG*dT*dA*e[5mC]*e[5mC]*eT*eA*eT) [compound 547606]” the “% inhibition” value [3] was 43%.
“546888 (eT*e[5mC]*e[5mC]*eT*eA*dT*dG*dT*d[5mC]*dA*d[5mC]*dT*dG*dT*dA*e[5mC]*e[5mC]*eT*eA*eT; antisense) [compound 546888]” was tested, and the “% inhibition” value [4] was 78%.
For “547475 (antisense eT*eT*eT*eG*eT*dT*dA*d[5mC]*d[5mC]*dA*dA*dA*dG*dG*dA*eA*eT*eA*eT*eT) [compound 547475]”, the “% inhibition” value [5] was 44% and the “% inhibition” value [6] was 42%.
In the case of “547513 (antisense eT*eG*e[5mC]*eA*eG*dA*dT*dG*dA*dG*dG*dA*d[5mC]*d[5mC]*d[5mC]*e[5mC]*e[5mC]*e[5mC]*eA*eG) [compound 547513]”, the “% inhibition” value [7] is reported as 72%.
With “547623 (antisense eT*eG*eT*e[5mC]*eA*d[5mC]*dT*dG*dT*dA*d[5mC]*d[5mC]*dT*dA*dT*eA*eA*e[5mC]*eT*e[5mC]) [compound 547623]” the “% inhibition” value [3] was 81%.
In the case of “548722 (DNA eA*e[5mC]*eT*dG*dT*dA*d[5mC]*dT*dA*dG*dT*dT*dT*e[5mC]*e[5mC]*eT*eA; antisense) [compound 548722]”, the “% inhibition” value (HepaRG cells, 5,000 nM antisense oligonucleotide, human PKK mRNA, Table 18) is reported as 26%.
For “547595 (antisense eA*e[5mC]*eT*eA*eG*dT*dT*dT*d[5mC]*d[5mC]*dT*dA*dT*dA*dA*e[5mC]*eT*eA*eT*eA) [compound 547595]”, the “% inhibition” value [3] was 21%.
“547567 (eT*e[5mC]*e[5mC]*eA*e[5mC]*dT*d[5mC]*d[5mC]*dT*dA*dA*dG*dA*dA*dG*eT*eA*eT*eG*eG; antisense) [compound 547567]” was tested, and the “% inhibition” value [8] was 60%.
With “548749 (antisense eT*eG*eT*eA*d[5mC]*dT*dA*dG*dT*dT*dT*d[5mC]*d[5mC]*dT*eA*eT*eA*eA) [compound 548749]” the “% inhibition” value [9] was 0%.
“547677 (antisense e[5mC]*eA*eT*e[5mC]*eA*d[5mC]*dT*dG*dT*d[5mC]*d[5mC]*dT*dA*dT*dA*eA*e[5mC]*eT*eA*eT) [compound 547677]” was tested, and the “% inhibition” value [10] was 62%.
“547318 (antisense e[5mC]*e[5mC]*eA*eG*eA*dA*dA*d[5mC]*dT*dG*d[5mC]*dA*d[5mC]*d[5mC]*dT*eG*eT*eT*e[5mC]*eG) [compound 547318]” was tested, and the “% inhibition” value [1] was 74%.
“546770 (eG*eT*eG*eG*eA*d[5mC]*dG*dA*d[5mC]*dT*dG*d[5mC]*d[5mC]*d[5mC]*dT*eG*eT*eG*e[5mC]*e[5mC]; antisense) [compound 546770]” was tested, and the “% inhibition” value [8] was 74%.
“547742 (eA*eT*e[5mC]*eG*eG*dT*dG*dG*dT*dG*dG*dG*dA*dT*dT*eG*eG*eT*e[5mC]*eG; antisense) [compound 547742]” was tested, and the “% inhibition” value [11] was 57%.
For “547439 (antisense eT*e[5mC]*eT*eG*eA*dG*d[5mC]*dT*dG*dT*d[5mC]*dA*dG*d[5mC]*dT*eT*e[5mC]*eA*e[5mC]*e[5mC]) [compound 547439]”, the “% inhibition” value [2] was 85%.
For “547480 (antisense eT*eT*e[5mC]*eT*eT*dT*dA*dT*dA*dG*d[5mC]*d[5mC]*dA*dG*d[5mC]*eA*e[5mC]*eA*eG*eA) [compound 547480]”, the “% inhibition” value [5] was 60% and the “% inhibition” value [6] was 49%.
With “547644 (eT*eA*eT*e[5mC]*eA*d[5mC]*dT*dG*dT*d[5mC]*d[5mC]*dT*dA*dT*dA*eA*e[5mC]*eT*eA*eT; antisense) [compound 547644]” the “% inhibition” value [4] was 51%.
“546811 (eT*eG*eG*eA*e[5mC]*dA*dT*d[5mC]*d[5mC]*dT*dT*d[5mC]*d[5mC]*d[5mC]*d[5mC]*eT*e[5mC]*eG*e[5mC]*eA; antisense) [compound 546811]” was tested, and the “% inhibition” value [8] was 49%.
With “548737 (DNA eA*e[5mC]*eT*eA*dG*dT*dT*dT*d[5mC]*d[5mC]*dT*dA*dT*eA*eA*e[5mC]*eT; antisense) [compound 548737]” the “% inhibition” value [9] was 11%.
With “546824 (eG*eT*eA*e[5mC]*eT*dA*dG*dT*dT*dT*d[5mC]*d[5mC]*dT*dA*dT*eA*eA*e[5mC]*eT*eG; antisense) [compound 546824]” the “% inhibition” value [8] was 79%.
With “547395 (eA*eA*eG*eT*eT*d[5mC]*dT*dT*dT*dT*dG*d[5mC]*dA*dG*dG*eT*eT*eA*eA*eA; antisense) [compound 547395]” the “% inhibition” value (Table 7, HepaRG cells, electroporation with 5,000 nM antisense oligonucleotide, approx. 24 hours, PKK mRNA by RT-PCR (RTS3454), relative to untreated control cells) was 15%.
In the case of “546349 (antisense eG*eT*eG*eT*eT*dT*dG*d[5mC]*dA*dA*dA*d[5mC]*dT*dA*dA*eG*eG*eG*eA*e[5mC]) [compound 546349]”, the “% inhibition” value [5] is reported as 48% and the “% inhibition” value [6] is reported as 35%.
In the case of “546411 (eA*eT*eA*eT*eT*dG*dA*d[5mC]*dT*dT*dT*dG*dG*dG*dT*eT*eT*e[5mC]*eT*eG; antisense) [compound 546411]”, the “% inhibition” value [12] is reported as 56%.
With “548739 (DNA eG*eT*eA*e[5mC]*dT*dA*dG*dT*dT*dT*d[5mC]*d[5mC]*dT*eA*eT*eA*eA; antisense) [compound 548739]” the “% inhibition” value [9] was 0%.
In the case of “546340 (antisense eT*eA*eA*eT*e[5mC]*dT*dT*dG*dA*dT*dA*dT*d[5mC]*dT*dT*eT*eT*e[5mC]*eT*eG) [compound 546340]”, the “% inhibition” value [5] is reported as 30% and the “% inhibition” value [6] is reported as 56%.
For “547670 (eT*eA*e[5mC]*eA*eA*d[5mC]*dT*dA*dT*dA*dA*d[5mC]*dA*dG*dT*eA*eT*e[5mC]*eA*e[5mC]; antisense) [compound 547670]”, the “% inhibition” value [4] was 0%.
For “547706 (antisense eT*eG*e[5mC]*e[5mC]*eT*d[5mC]*d[5mC]*dT*dG*dG*d[5mC]*dA*dG*d[5mC]*d[5mC]*eT*eT*e[5mC]*eA*eA) [compound 547706]”, the “% inhibition” value [10] was 73%.
With “548759 (antisense eA*eA*e[5mC]*eA*dG*dT*dA*dT*d[5mC]*dA*d[5mC]*dT*dG*eT*eA*e[5mC]*eT) [compound 548759]” the “% inhibition” value [9] was 68%.
With “547627 (antisense eT*e[5mC]*eT*eA*e[5mC]*d[5mC]*dT*dA*dT*dA*dA*d[5mC]*dT*d[5mC]*dT*eA*eA*e[5mC]*eA*eG) [compound 547627]” the “% inhibition” value [4] was 71%.
In the case of “547422 (eA*e[5mC]*e[5mC]*eA*eT*d[5mC]*d[5mC]*dA*dT*dA*dG*dA*dT*dA*dA*eT*e[5mC]*eT*eT*eA; antisense) [compound 547422]”, the “% inhibition” value [2] is reported as 70%.
“547324 (antisense e[5mC]*eA*eT*eT*eG*d[5mC]*dT*dT*d[5mC]*dA*dA*dG*dG*dA*dA*eT*eG*eT*e[5mC]*e[5mC]) [compound 547324]” was tested, and the “% inhibition” value [1] was 76%.
“547680 (antisense eT*eA*eT*e[5mC]*eA*d[5mC]*dT*dG*dT*dA*d[5mC]*d[5mC]*dT*dA*dT*eA*eT*e[5mC]*eA*e[5mC]) [compound 547680]” was tested, and the “% inhibition” value [10] was 41%.
With “547579 (eT*eG*eT*e[5mC]*e[5mC]*dT*dA*dT*dA*dA*d[5mC]*dT*d[5mC]*dT*dA*eA*e[5mC]*eA*eG*eT; antisense) [compound 547579]” the “% inhibition” value [8] was 0%.
In the case of “547442 (antisense eT*eG*eG*eT*eG*dT*d[5mC]*d[5mC]*dT*dA*dT*dG*dA*dG*dT*eG*eA*e[5mC]*e[5mC]*e[5mC]) [compound 547442]”, the “% inhibition” value [2] is reported as 42%.
In the case of “547519 (antisense e[5mC]*e[5mC]*eA*eG*eA*d[5mC]*dA*dT*dT*dG*dT*d[5mC]*d[5mC]*dT*d[5mC]*eA*eG*e[5mC]*eA*eG) [compound 547519]”, the “% inhibition” value [7] is reported as 76%.
With “547578 (eG*eT*e[5mC]*e[5mC]*eT*dA*dT*dA*dA*d[5mC]*dT*d[5mC]*dT*dA*dA*e[5mC]*eA*eG*eT*eA; antisense) [compound 547578]” the “% inhibition” value [8] was 30%.
For “546392 (eG*eA*e[5mC]*e[5mC]*eT*d[5mC]*dG*d[5mC]*dA*dT*dT*dG*dT*d[5mC]*dA*eG*e[5mC]*e[5mC]*e[5mC]*e[5mC]; antisense) [compound 546392]”, the “% inhibition” value [7] was 72%.
“546823 (eT*eA*e[5mC]*eT*eA*dG*dT*dT*dT*d[5mC]*d[5mC]*dT*dA*dT*dA*eA*e[5mC]*eT*eG*e[5mC]; antisense) [compound 546823]” was tested, and the “% inhibition” value [8] was 44%.
With “546326 (antisense e[5mC]*e[5mC]*e[5mC]*eA*eA*d[5mC]*dA*dG*dT*dT*dG*dG*dT*dA*dT*eA*eA*eA*eT*eT) [compound 546326]” the “% inhibition” value [5] was 62% and the “% inhibition” value [6] was 64%.
“547766 (antisense eG*e[5mC]*e[5mC]*eT*e[5mC]*dT*d[5mC]*dA*dG*dA*d[5mC]*dG*dG*d[5mC]*dA*e[5mC]*eA*eG*eA*e[5mC]) [compound 547766]” was tested, and the “% inhibition” value [11] was 0%.
With “546450 (eG*eT*eG*eG*e[5mC]*d[5mC]*d[5mC]*dT*d[5mC]*dT*dT*dA*dA*dG*dT*e[5mC]*eA*e[5mC]*e[5mC]*eA; antisense) [compound 546450]” the “% inhibition” value [12] was 73%.
